From ChEMBL document CHEMBL2385026, “Identification of C-2 hydroxyethyl imidazopyrrolopyridines as potent JAK1 inhibitors with favorable physicochemical properties and high selectivity over JAK2” (J Med Chem, 2013)
Values after ≈ are worked out from the molar mass of the structure shown. One block for each compound: values may come before it.

Tests used:
[1] = Apparent permeability across apical to basolateral side in dog MDCK cells; format: ADME, cell-based, Canis lupus familiaris
[2] = biological target: T1, Tyrosine-protein kinase JAK1 (Homo sapiens, UniProt P23458)
T1 sequence (P23458 whole entry): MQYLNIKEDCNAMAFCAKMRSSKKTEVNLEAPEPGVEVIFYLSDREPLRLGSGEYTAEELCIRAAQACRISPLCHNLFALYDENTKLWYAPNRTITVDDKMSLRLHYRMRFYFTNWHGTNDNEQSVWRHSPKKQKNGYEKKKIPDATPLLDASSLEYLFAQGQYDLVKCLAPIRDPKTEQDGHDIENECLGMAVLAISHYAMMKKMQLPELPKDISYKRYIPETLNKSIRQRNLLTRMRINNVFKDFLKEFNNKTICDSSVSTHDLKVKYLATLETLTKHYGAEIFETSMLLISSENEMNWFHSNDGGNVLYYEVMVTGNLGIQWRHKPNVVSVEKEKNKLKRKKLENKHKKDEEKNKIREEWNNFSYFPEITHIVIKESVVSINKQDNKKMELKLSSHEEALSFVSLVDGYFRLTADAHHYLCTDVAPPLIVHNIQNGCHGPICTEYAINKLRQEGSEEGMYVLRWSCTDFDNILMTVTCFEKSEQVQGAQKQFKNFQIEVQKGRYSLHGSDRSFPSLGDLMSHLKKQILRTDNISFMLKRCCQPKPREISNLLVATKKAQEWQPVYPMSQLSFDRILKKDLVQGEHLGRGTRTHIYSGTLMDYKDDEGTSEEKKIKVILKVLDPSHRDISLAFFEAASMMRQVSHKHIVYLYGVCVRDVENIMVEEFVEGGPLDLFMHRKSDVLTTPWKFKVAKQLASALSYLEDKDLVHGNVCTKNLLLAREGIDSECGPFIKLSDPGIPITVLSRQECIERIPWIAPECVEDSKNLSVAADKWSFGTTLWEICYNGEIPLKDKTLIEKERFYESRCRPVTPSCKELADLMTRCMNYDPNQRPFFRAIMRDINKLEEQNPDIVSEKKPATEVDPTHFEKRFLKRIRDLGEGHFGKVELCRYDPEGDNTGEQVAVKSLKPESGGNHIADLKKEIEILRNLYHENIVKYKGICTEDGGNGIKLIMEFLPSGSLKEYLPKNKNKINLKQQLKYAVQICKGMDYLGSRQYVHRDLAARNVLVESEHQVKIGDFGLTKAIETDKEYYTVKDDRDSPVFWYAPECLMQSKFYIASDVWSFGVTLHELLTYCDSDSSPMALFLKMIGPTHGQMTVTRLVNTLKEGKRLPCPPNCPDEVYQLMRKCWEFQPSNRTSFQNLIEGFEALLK

[3] = biological target: T1, Tyrosine-protein kinase JAK1; remark: listed apart in the source
[4] = biological target: T1, Tyrosine-protein kinase JAK1; remark: listed apart in the source
[5] = Hepatic clearance in human hepatocytes after 1 to 4 hrs by LC/MS/MS analysis; format: ADME, cell-based, Liver, Hepatocyte
[6] = Hepatic clearance in human liver microsomes by LC/MS/MS analysis; format: ADME, Microsome
[7] = AUC in Sprague-Dawley rat at 2 mg/kg, po by LC/MS/MS analysis; format: ADME, organism-based; set-up: dose 2 mg/kg, route oral; conditions: plasma
[8] = Metabolic stability in rat hepatocytes assessed as hepatic clearance; format: ADME, cell-based, Liver, Hepatocyte
Cytochrome P450 2C9 = Cytochrome P450 2C9 (Homo sapiens, UniProt P11712)
Cytochrome P450 2C9, sequence (P11712 whole entry): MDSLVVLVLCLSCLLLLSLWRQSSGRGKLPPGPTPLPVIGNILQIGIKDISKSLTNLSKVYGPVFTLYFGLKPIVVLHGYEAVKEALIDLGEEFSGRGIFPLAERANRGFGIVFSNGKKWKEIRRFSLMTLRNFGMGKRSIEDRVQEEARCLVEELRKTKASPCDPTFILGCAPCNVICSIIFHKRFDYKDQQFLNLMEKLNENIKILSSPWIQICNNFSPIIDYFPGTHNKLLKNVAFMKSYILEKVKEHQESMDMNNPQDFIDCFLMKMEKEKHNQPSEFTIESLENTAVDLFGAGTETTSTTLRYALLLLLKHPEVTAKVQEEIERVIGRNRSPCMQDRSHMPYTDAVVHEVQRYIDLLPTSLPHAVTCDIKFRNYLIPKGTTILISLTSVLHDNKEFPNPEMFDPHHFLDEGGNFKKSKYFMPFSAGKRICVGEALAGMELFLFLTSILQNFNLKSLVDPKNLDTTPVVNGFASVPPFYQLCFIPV

Cytochrome P450 2D6 = Cytochrome P450 2D6 (Homo sapiens, UniProt P10635)
Cytochrome P450 2D6, sequence (P10635 whole entry): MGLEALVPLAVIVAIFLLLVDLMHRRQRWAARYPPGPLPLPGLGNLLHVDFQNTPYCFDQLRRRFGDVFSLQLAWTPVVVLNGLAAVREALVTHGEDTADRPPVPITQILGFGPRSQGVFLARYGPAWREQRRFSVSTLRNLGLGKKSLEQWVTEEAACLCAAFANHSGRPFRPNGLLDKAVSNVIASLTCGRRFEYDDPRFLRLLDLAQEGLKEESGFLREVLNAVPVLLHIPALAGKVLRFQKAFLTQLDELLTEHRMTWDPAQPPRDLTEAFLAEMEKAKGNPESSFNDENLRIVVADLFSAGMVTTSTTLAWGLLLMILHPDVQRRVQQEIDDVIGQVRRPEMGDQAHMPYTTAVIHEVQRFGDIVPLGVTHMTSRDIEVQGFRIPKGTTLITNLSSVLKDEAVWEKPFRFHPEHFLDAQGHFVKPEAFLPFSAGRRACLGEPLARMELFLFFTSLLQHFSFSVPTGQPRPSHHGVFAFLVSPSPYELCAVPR

[9] = Thermodynamic solubility in aqueous buffer at pH 7.4; format: physicochemical; conditions: read-out: Therm_solubility
[10] = biological target: Tyrosine-protein kinase JAK3 (Homo sapiens, UniProt P52333)
[11] = Clearance in Sprague-Dawley rat at 0.4 mg/kg, iv by LC/MS/MS analysis; format: ADME, organism-based; set-up: dose 0.4 mg/kg, route intravenous; conditions: in vivo
[12] = biological target: Voltage-gated inwardly rectifying potassium channel KCNH2 (Homo sapiens, UniProt Q12809)
[13] = Plasma protein binding in dog; format: ADME, cell-free, Canis lupus familiaris; conditions: read-out: PPB (converted)
[14] = biological target: T2, Non-receptor tyrosine-protein kinase TYK2 (Homo sapiens, UniProt P29597)
T2 sequence (P29597 whole entry): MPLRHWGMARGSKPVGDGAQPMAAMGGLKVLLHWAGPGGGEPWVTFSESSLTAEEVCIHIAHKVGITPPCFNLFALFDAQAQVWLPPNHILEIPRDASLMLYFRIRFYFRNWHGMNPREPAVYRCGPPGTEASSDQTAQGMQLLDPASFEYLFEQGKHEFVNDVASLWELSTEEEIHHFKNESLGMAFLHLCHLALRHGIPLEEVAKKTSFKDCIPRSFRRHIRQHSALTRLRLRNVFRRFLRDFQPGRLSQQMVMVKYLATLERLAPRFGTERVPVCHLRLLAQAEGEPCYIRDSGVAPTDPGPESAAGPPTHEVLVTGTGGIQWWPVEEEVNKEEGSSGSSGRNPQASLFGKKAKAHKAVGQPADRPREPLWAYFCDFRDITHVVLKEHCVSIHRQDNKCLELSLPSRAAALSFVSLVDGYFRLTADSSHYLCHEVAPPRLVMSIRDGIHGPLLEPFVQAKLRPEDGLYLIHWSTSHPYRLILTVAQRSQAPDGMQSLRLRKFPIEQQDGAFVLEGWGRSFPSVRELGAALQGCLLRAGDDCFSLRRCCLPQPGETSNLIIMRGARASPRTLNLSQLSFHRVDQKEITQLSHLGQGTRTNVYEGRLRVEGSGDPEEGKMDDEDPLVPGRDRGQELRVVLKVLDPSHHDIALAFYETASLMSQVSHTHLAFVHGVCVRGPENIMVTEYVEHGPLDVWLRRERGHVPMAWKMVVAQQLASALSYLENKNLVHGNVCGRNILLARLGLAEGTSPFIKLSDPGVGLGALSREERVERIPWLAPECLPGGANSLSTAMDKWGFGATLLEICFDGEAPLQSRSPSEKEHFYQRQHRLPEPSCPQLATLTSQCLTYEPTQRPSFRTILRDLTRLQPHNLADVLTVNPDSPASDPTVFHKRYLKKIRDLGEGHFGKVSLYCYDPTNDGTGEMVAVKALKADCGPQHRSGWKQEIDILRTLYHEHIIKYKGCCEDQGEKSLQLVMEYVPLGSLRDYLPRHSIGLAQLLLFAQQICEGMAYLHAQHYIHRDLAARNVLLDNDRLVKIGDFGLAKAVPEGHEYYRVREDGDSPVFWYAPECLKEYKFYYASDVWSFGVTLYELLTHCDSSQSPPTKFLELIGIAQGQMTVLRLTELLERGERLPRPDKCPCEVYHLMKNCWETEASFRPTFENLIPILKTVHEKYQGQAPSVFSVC

[15] = AUC in Beagle dog at 2 mg/kg, po by LC/MS/MS analysis; format: ADME, organism-based, Canis lupus familiaris; set-up: dose 2 mg/kg, route oral; conditions: plasma
[16] = Half life in Sprague-Dawley rat at 0.4 mg/kg, iv by LC/MS/MS analysis; format: ADME, organism-based; set-up: dose 0.4 mg/kg, route intravenous; conditions: in vivo
[17] = biological target: T2, Non-receptor tyrosine-protein kinase TYK2; remark: listed apart in the source
[18] = Cmax in Sprague-Dawley rat at 2 mg/kg, po by LC/MS/MS analysis; format: ADME, organism-based; set-up: dose 2 mg/kg, route oral; conditions: in vivo
Cytochrome P450 1A2 = biological target: T3, Cytochrome P450 1A2 (Homo sapiens, UniProt P05177); test: Reversible inhibition of CYP1A2 in human liver microsomes using phenacetin as substrate by LC/MS/MS analysis; format: ADME, Microsome
T3 sequence (P05177 whole entry): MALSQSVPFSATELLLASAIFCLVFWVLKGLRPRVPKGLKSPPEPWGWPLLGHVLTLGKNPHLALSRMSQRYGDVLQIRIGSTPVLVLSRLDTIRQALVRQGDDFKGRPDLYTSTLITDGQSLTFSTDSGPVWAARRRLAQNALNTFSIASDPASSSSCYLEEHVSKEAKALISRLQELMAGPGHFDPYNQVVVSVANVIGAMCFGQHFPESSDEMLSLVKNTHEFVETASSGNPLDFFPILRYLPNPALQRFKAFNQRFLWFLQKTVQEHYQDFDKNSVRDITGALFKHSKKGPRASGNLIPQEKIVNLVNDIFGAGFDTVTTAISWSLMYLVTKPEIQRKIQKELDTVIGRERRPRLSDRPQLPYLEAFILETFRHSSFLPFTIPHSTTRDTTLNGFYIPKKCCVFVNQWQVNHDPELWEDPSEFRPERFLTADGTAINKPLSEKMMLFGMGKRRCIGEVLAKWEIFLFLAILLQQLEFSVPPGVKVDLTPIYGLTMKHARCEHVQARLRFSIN

[19] = Clearance in Beagle dog at 0.4 mg/kg, iv by LC/MS/MS analysis; format: ADME, organism-based, Canis lupus familiaris; set-up: dose 0.4 mg/kg, route intravenous; conditions: in vivo
Cytochrome P450 3A4 [20] = biological target: T4, Cytochrome P450 3A4 (Homo sapiens, UniProt P08684); test: Reversible inhibition of CYP3A4 in human liver microsomes using testosterone as substrate by LC/MS/MS analysis; format: ADME, Microsome
T4 sequence (P08684 whole entry): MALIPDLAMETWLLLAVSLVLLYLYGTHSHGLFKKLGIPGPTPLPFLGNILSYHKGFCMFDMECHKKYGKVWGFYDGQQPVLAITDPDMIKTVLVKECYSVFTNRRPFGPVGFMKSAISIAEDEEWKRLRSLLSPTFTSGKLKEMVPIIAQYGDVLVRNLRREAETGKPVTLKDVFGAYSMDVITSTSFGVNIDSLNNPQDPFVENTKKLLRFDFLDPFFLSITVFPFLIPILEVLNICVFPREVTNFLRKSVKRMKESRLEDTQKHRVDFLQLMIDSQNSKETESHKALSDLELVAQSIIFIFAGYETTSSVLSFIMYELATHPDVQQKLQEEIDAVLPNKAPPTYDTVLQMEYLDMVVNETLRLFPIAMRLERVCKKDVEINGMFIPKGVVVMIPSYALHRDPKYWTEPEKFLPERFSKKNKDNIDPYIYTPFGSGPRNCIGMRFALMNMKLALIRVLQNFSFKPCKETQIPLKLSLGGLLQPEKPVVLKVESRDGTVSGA

[21] = Thermodynamic solubility in aqueous buffer at pH 2; format: physicochemical; conditions: read-out: Therm_solubility
[22] = Oral bioavailability in Beagle dog at 2 mg/kg by LC/MS/MS analysis; format: ADME, organism-based, Canis lupus familiaris; conditions: Beagle, in vivo
[23] = Plasma protein binding in rat; format: ADME, cell-free; conditions: read-out: PPB (converted)
[24] = Metabolic stability in monkey hepatocytes assessed as hepatic clearance; format: ADME, cell-based, Macaca mulatta, Liver, Hepatocyte; conditions: rhesus monkey
[25] = Apparent permeability across basolateral to apical side in dog MDCK cells; format: ADME, cell-based, Canis lupus familiaris
[26] = Plasma protein binding in cynomolgus monkey; format: ADME, cell-free, Macaca fascicularis; conditions: read-out: PPB (converted)
[27] = Cmax in Beagle dog at 2 mg/kg, po by LC/MS/MS analysis; format: ADME, organism-based, Canis lupus familiaris; set-up: dose 2 mg/kg, route oral; conditions: in vivo
Cytochrome P450 2C19 = Cytochrome P450 2C19 (Homo sapiens, UniProt P33261)
Cytochrome P450 3A4 [28] = biological target: T4, Cytochrome P450 3A4; test: Reversible inhibition of CYP3A4 in human liver microsomes using midazolam as substrate by LC/MS/MS analysis; format: ADME, Microsome
[29] = Oral bioavailability in Sprague-Dawley rat at 2 mg/kg by LC/MS/MS analysis; format: ADME, organism-based; conditions: Sprague-Dawley, in vivo
[30] = Half life in Beagle dog at 0.4 mg/kg, iv by LC/MS/MS analysis; format: ADME, organism-based, Canis lupus familiaris; set-up: dose 0.4 mg/kg, route intravenous; conditions: in vivo
[31] = Metabolic stability in dog hepatocytes assessed as hepatic clearance; format: ADME, cell-based, Canis lupus familiaris, Liver, Hepatocyte
[32] = biological target: T5, Tyrosine-protein kinase JAK2 (Homo sapiens, UniProt O60674); format: cell-based, TF-1
T5 sequence (O60674 whole entry): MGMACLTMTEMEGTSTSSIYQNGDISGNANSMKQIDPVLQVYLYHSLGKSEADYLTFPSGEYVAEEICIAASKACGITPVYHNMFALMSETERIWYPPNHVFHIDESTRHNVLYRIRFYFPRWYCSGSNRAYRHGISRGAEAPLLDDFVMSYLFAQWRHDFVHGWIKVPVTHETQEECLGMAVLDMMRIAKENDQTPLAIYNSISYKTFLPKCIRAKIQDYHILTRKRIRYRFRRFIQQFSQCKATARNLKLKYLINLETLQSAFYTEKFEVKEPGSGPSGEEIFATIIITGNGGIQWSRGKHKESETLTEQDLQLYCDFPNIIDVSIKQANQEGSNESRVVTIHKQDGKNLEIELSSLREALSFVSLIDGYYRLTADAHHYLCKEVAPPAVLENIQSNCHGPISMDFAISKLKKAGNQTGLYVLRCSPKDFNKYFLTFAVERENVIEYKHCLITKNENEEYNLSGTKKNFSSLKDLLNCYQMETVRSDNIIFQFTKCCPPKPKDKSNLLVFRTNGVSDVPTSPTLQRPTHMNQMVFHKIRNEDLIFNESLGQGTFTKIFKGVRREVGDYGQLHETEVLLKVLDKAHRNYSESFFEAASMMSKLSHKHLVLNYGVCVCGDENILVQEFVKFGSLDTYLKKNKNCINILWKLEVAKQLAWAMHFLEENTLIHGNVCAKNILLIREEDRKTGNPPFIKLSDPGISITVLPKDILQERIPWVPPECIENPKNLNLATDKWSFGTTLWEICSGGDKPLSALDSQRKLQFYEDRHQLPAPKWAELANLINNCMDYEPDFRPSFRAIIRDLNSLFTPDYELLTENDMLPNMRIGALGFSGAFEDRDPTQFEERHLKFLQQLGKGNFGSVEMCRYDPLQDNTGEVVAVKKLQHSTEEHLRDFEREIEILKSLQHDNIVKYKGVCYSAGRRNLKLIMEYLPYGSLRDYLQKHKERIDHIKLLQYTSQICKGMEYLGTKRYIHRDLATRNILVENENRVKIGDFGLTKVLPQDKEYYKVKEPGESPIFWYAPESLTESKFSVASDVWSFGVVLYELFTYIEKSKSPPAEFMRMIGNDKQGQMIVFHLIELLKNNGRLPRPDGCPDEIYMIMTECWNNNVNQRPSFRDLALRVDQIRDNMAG

[33] = biological target: T5, Tyrosine-protein kinase JAK2
[34] = Oral bioavailability in cynomolgus monkey at 2 mg/kg by LC/MS/MS analysis; format: ADME, organism-based, Macaca fascicularis; conditions: in vivo
[35] = AUC in cynomolgus monkey at 2 mg/kg, po by LC/MS/MS analysis; format: ADME, organism-based, Macaca fascicularis; set-up: dose 2 mg/kg, route oral; conditions: plasma
[36] = Cmax in cynomolgus monkey at 2 mg/kg, po by LC/MS/MS analysis; format: ADME, organism-based, Macaca fascicularis; set-up: dose 2 mg/kg, route oral; conditions: in vivo
[37] = Half life in cynomolgus monkey at 0.4 mg/kg, iv by LC/MS/MS analysis; format: ADME, organism-based, Macaca fascicularis; set-up: dose 0.4 mg/kg, route intravenous; conditions: in vivo
[38] = Clearance in cynomolgus monkey at 0.4 mg/kg, iv by LC/MS/MS analysis; format: ADME, organism-based, Macaca fascicularis; set-up: dose 0.4 mg/kg, route intravenous; conditions: in vivo

- Papp A→B [1]: 1.1 ×10⁻⁶ cm/s
- EC50 [2]: 120 nM
- EC50 [3]: 140 nM
SMILES: C[C@@H](O)c1nc2cnc3[nH]ccc3c2n1[C@@H]1CCC[C@@H](O)C1

- Ki [4]: 1.2 nM
- Papp A→B [1]: 10 ×10⁻⁶ cm/s
- CLhep predicted [5]: 3.5 mL/min/kg
- EC50 [2]: 74 nM
- EC50 [3]: 82 nM
- CLhep predicted [6]: 5.6 mL/min/kg
SMILES: C[C@@H](O)c1nc2cnc3[nH]ccc3c2n1[C@H]1CC[C@H](NCC(F)(F)F)C1

- AUC [7]: 1.4 µM·h
- CLhep predicted [8]: 11 mL/min/kg
- IC50 (Cytochrome P450 2C9): > 10000 nM
- Ki [4]: 0.8 nM
- IC50 (Cytochrome P450 2D6): > 10000 nM
- solubility thermodynamic [9]: 130 µM (≈ 49.6 µg/mL)
- Ki [10]: 76 nM
- clearance [11]: 36 mL/min/kg
- fraction unbound [13]: 0.45
- Ki [14]: 3.4 nM
- Papp A→B [1]: 6.7 ×10⁻⁶ cm/s
- AUC [15]: 9.9 µM·h
- half-life [16]: 30 min
- CLhep predicted [5]: 2 mL/min/kg
- EC50 [17]: 310 nM
- Cmax [18]: 960 nM
- IC50 (Cytochrome P450 1A2): > 10000 nM
- clearance [19]: 13 mL/min/kg
- IC50 (Cytochrome P450 3A4 [20]): > 10000 nM
- solubility thermodynamic [21]: 3900 µM (≈ 1490 µg/mL)
- bioavailability [22]: 139%
- fraction unbound [23]: 0.44
- CLhep predicted [24]: 26 mL/min/kg
- Papp B→A [25]: 10 ×10⁻⁶ cm/s
- fraction unbound [26]: 0.35
- Cmax [27]: 2100 nM
- EC50 [2]: 28 nM
- EC50 [3]: 29 nM
- IC50 (Cytochrome P450 2C19): > 10000 nM
- IC50 (Cytochrome P450 3A4 [28]): > 10000 nM
- CLhep predicted [6]: 3.3 mL/min/kg
- bioavailability [29]: 54%
- half-life [30]: 102 min
- CLhep predicted [31]: 2.3 mL/min/kg
SMILES: C[C@@H](O)c1nc2cnc3[nH]ccc3c2n1[C@H]1CC[C@H](NCC(F)(F)F)CC1
- IC50 [12]: > 100000 nM

- Ki [4]: 31 nM
SMILES: C[C@@H](O)c1nc2cnc3[nH]ccc3c2n1C1CCOCC1

- Ki [4]: 0.9 nM
- Papp A→B [1]: 4.2 ×10⁻⁶ cm/s
- CLhep predicted [5]: 5.6 mL/min/kg
- EC50 [2]: 49 nM
- EC50 [3]: 78 nM
- CLhep predicted [6]: 4.3 mL/min/kg
SMILES: C[C@@H](O)c1nc2cnc3[nH]ccc3c2n1[C@H]1CC[C@@H](C#N)CC1

- Papp A→B [1]: 23 ×10⁻⁶ cm/s
- EC50 [32]: 1700 nM
- Ki [33]: 21 nM
SMILES: C[C@@H](O)c1nc2cnc3[nH]ccc3c2n1C1CCCCC1

- AUC [7]: 0.42 µM·h
- CLhep predicted [8]: 28 mL/min/kg
- IC50 (Cytochrome P450 2C9): > 10000 nM
- bioavailability [34]: 8%
- IC50 (Cytochrome P450 2D6): > 10000 nM
- solubility thermodynamic [9]: 16 µM (≈ 5.4 µg/mL)
- Ki [10]: 7.8 nM
- clearance [11]: 126 mL/min/kg
- fraction unbound [13]: 0.34
- AUC [35]: 0.26 µM·h
- Papp A→B [1]: 4.7 ×10⁻⁶ cm/s
- AUC [15]: 4.3 µM·h
- half-life [16]: 36 min
- CLhep predicted [5]: 5.7 mL/min/kg
- Cmax [36]: 70 nM
- Cmax [18]: 220 nM
- IC50 (Cytochrome P450 1A2): > 10000 nM
- clearance [19]: 29 mL/min/kg
- IC50 (Cytochrome P450 3A4 [20]): > 10000 nM
- solubility thermodynamic [21]: > 4000 µM
- bioavailability [22]: 125%
- fraction unbound [23]: 0.32
- CLhep predicted [24]: 36 mL/min/kg
- Papp B→A [25]: 9.3 ×10⁻⁶ cm/s
- fraction unbound [26]: 0.24
- Cmax [27]: 1300 nM
- half-life [37]: 48 min
- IC50 (Cytochrome P450 2C19): > 10000 nM
- IC50 (Cytochrome P450 3A4 [28]): 6700 nM
- CLhep predicted [6]: 5.2 mL/min/kg
- bioavailability [29]: 50%
- clearance [38]: 29 mL/min/kg
- half-life [30]: 78 min
- CLhep predicted [31]: 11 mL/min/kg
SMILES: C[C@@H](O)c1nc2cnc3[nH]ccc3c2n1[C@H]1CC[C@H](CCC#N)CC1
- IC50 [12]: 20000 nM

- Ki [4]: 68 nM
- CLhep predicted [6]: 4.6 mL/min/kg
SMILES: C[C@@H](O)c1nc2cnc3[nH]ccc3c2n1[C@@H]1CCCOC1

- Ki [4]: 1.1 nM
- Papp A→B [1]: 24 ×10⁻⁶ cm/s
- CLhep predicted [5]: 19 mL/min/kg
- EC50 [32]: 730 nM
- EC50 [2]: 64 nM
- EC50 [3]: 313 nM
- Ki [33]: 8.3 nM
- CLhep predicted [6]: 5.6 mL/min/kg
SMILES: OCc1nc2cnc3[nH]ccc3c2n1C1CCCCC1

- Ki [4]: 1.6 nM
- Papp A→B [1]: 16 ×10⁻⁶ cm/s
- CLhep predicted [5]: 6.8 mL/min/kg
- EC50 [2]: 69 nM
- EC50 [3]: 220 nM
- CLhep predicted [6]: 1.8 mL/min/kg
SMILES: OC[C@@H](O)c1nc2cnc3[nH]ccc3c2n1C1CCCCC1

- Papp A→B [1]: 6.7 ×10⁻⁶ cm/s
- CLhep predicted [5]: 5.9 mL/min/kg
- CLhep predicted [6]: 1.3 mL/min/kg
SMILES: CO[C@H]1CC[C@H](n2c([C@@H](C)O)nc3cnc4[nH]ccc4c32)CC1

- Ki [4]: 1.1 nM
- Papp A→B [1]: 2.8 ×10⁻⁶ cm/s
- CLhep predicted [5]: 1.1 mL/min/kg
- EC50 [2]: 57 nM
- EC50 [3]: 62 nM
- CLhep predicted [6]: 3.6 mL/min/kg
SMILES: C[C@@H](O)c1nc2cnc3[nH]ccc3c2n1[C@H]1CC[C@H](NCC(F)F)CC1
